B1: IFN-γ: murine rIFN-γ (100 U/ml), Th1 cytokine used to stimulate PM (protein, UniProt P01580 23-155, looked up)
Interferon gamma: HGTVIESLESLNNYFNSSGIDVEEKSLFLDIWRNWQKDGDMKILQSQIISFYLRLFEVLKDNQAISNNISVIESHLITTFFSNSKAKKDAFMSIAKFEVNNPQVQRQAFNELIRVVHQLLPESSLRKRKRSRC

What was measured:
[1] = test system: 3LL lung carcinoma; test: Anti-tumor effect on 3LL lung carcinoma in C57Bl/6 mice; format: in vivo
Experimental: The anti-tumor effect of arginase inhibitor Nor-NOHA was also measured on these tumor cells. C57Bl/6 mice were injected with one million 3LL lung carcinoma cells on the flank. […] Control mice received normal saline solution. Tumors were measured and the tumor volume was calculated in cubic […]. […] Materials and methods for this example were similar to those described in the above examples.

[2] = test system: peritoneal macrophages (PM); test: Extra-cellular L-Arg concentration in supernatants of peritoneal macrophages (HPLC); format: cell-based, mice; settings: for extra-cellular L-Arg levels (mean of three experiments): L-Arg 2 mM, NOHA 100 μM, Nor-NOHA 50 μM
Experimental: Jurkat T-cells, a CD4^+ cell line (Clone E6-1) (ATCC, Manassas, Va.) and normal stimulated T-cells were used to test the effect of ASE I, ASE II and iNOS produced by PM on CD3ζ expression. Six-week old female C57BL/6 mice were used to isolate peritoneal macrophages (PM). Briefly, 3 ml of thioglycolate-brewer (Becton Dickinson, San Jose, Calif.) were injected into the peritoneal cavity of mice for 3 days. Mice were then sacrificed and PM isolated by washing the peritoneum with HBSS. After 2 days of culture in RPMI with 4% fetal bovine serum, unattached cells were washed off and attached cells were used in co-cultures with Jurkat or normal T-cells.
(§1) PM were cultured in 6 well plates in RPMI containing 150 μM L-Arg and stimulated with murine rIL-4 (50 U/ml) and murine rIL-13 (50 ng/ml), or murine rIFN-γ (100 U/ml) for 24 hours. Then 1×10^6 normal T-cells stimulated with anti-CD3 plus anti-CD28 or 1×10^6 Jurkat cells, were cultured in the top chamber of a transwell system having 0.4 μm pores (Falcon, Franklin lakes, N.J.). CD3ζ expression was measured in Jurkat cells or T lymphocytes at different time points. PM were detached using trypsin/EDTA and the expression of protein and RNA for CAT-2B, ASE I, ASE II and iNOS was tested by western blot and northern blot respectively. Cytoplasmic extracts from PM were used to test ASE activity. Supernatants from stimulated PM were used to measure NO production using the Griess reagent method (Molecular Probes, Eugene, Oreg.). In addition, the extra-cellular concentration of L-Arg was tested in supernatants by HPLC (Dr. Gu Yao Wu laboratory, University of Texas) as described previously. O'Quinn, P. R., D. A. Knabe, and G. Wu. 2002. Arginine catabolism in lactating porcine mammary tissue. J Anim Sci. 80:467-474.

[3] = test system: ASE I; test: Western blot for ASE I in PM cytoplasmic extracts; format: cell-based, mice
Experimental: Cytoplasmic extracts from PM, Jurkat cells or T lymphocytes were prepared as previously reported. Taheri, F., J. B. Ochoa, Z. Faghiri, K. Culotta, H. J. Park, M. S. Lan, A. H. Zea, and A. C. Ochoa. 2001. L-Arginine regulates the expression of the T-cell receptor zeta chain (CD3zeta) in Jurkat cells. Clin Cancer Res 7:958s-965s. Briefly, cells were resuspended in lysis buffer (50 mM HEPES, 150 mM NaCl, 5 mM EDTA, 1 mM NaOV4 and 0.5% Triton) containing 50 μg/ml of aprotinin, 50 μg/ml of leupeptin, 100 μg/ml of trypsin-chymotrypsin inhibitor and 2 mM PMSF. Lysates were centrifuged at 3000×g for 10 min at 4° C. Cytoplasmic extracts from Jurkat or T-cells were immunoblotted for CD3ζ and CD3ε. The expression ASE I, ASE II and iNOS was detected by immunoblot using PM extracts. GAPDH was used as housekeeping protein. Cytoplasmic extracts were electrophoresed in 12 or 8% Tris-Glycine gels (Novex, San Diego, Calif.), transferred to PVDF membranes and immunoblotted with the appropriate antibodies. The reactions were detected using the ECL kit (Amersham-Pharmacia).

[4] = test system: T lymphocytes; test: Co-culture in transwells of stimulated PM and stimulated normal T lymphocytes, CD3ζ expression; format: cell-based, human
Experimental: T-cells were isolated from mononuclear cells of healthy donors by T-cell enrichment columns (R&D Systems, Minneapolis, Minn.) according to manufacturer specifications. T-cell purity (CD3+) ranged between 89-95%. The cycle of internalization and re-expression of the TCR-CD3 complex was induced by T-cell stimulation with 1 μg/ml of anti-CD3, 100 ng/ml of anti-CD28 (Becton Dickinson) and 10 μg/ml of goat anti-mouse IgG (KPL, Gaithersburg, Md.). Cells were stimulated in the absence of L-Arg and added to the co-cultures 24 h after stimulation.
as §1
Flow cytometry analysis was performed as previously described. Taheri, F., J. B. Ochoa, Z. Faghiri, K. Culotta, H. J. Park, M. S. Lan, A. H. Zea, and A. C. Ochoa. 2001. […] Fluorescence acquisition and analysis were done using a Coulter-EPICS XL flow cytometer (Beckman-Coulter) with a 488 nm argon laser. The data were expressed as mean channel fluorescence intensity (MFI).

[5] = test system: ASE; test: ASE activity assay (L-ornithine production) in PM lysates; format: biochemical, mice; settings: NOHA 100 μM, Nor-NOHA 50 μM
Experimental: Cell lysates from PM stimulated with IL-4+IL-13 or IFN-γ were tested for ASE activity by measuring the production of L-ornithine. In brief, cell lysates from PM stimulated with IL-4+IL-13 or IFN-γ in the presence or absence of NOHA or Nor-NOHA were added to 50 μl of Tris-HCl (50 mM; pH 7.5) containing 10 mM MnCl2. This mixture was heated at 55-60° C. for 10 min to activate ASE. The hydrolysis reaction from L-Arg to L-ornithine was identified by a colorimetric assay after the addition of ninhydrin solution and incubation at 37° C. for 1 h.

[6] = test system: Jurkat cells; test: Co-culture in transwells of stimulated PM and Jurkat cells, CD3ζ expression; format: cell-based
Experimental: as §1
Flow cytometry analysis was performed as previously described. Taheri, F., J. B. Ochoa, Z. Faghiri, K. Culotta, H. J. Park, M. S. Lan, A. H. Zea, and A. C. Ochoa. 2001. L-Arginine regulates the expression of the T-cell receptor zeta chain (CD3zeta) in Jurkat cells. Clin Cancer Res 7:958s-965s. Briefly, 5×10^5 Jurkat cells or T lymphocytes were washed once with Dulbecco phosphate-buffered saline 1× (D-PBS) and resuspended in 200 μL of D-PBS containing 1 μg of anti-CD3ε or isotype control. Cells were incubated for 15 min at 4° C., washed with D-PBS and resuspended in 200 μl D-PBS containing 500 μg/ml of digitonin plus 1 μg of anti-CD3ζ or 1 μg of isotypic control. Cells were incubated for 8 minutes after which they were washed and resuspended in 400 μl of D-PBS. Fluorescence acquisition and analysis were done using a Coulter-EPICS XL flow cytometer (Beckman-Coulter) with a 488 nm argon laser. The data were expressed as mean channel fluorescence intensity (MFI).

[7] = test system: CAT-2B; test: CAT-2B mRNA expression in PM (northern blot); format: cell-based, mice
Source text: Anti-CD3ε-FITC, anti-CD3ζ-PE (Beckman-Coulter, Miami, Fla.) were used for flow cytometry. Mouse IgG1-FITC and mouse IgG1-PE (Beckman-Coulter) were used as isotype controls. Monoclonal antibodies against CD3ζ (Santa Cruz Biotechnologies, Santa Cruz, Calif.), CD3ε (DAKO, Carpinteria, Calif.), iNOS (Santa Cruz Biotechnologies), ASE I (Transduction-Becton Dickinson) and ASE II (a kind gift of Dr. Sidney Morris Jr) were used for western blots. To test the expression of CAT transporters mRNA, specific amplification products from RT-PCR of CAT-1, CAT-2A, CAT-2B and CAT-3 were purified from agarose gels and used as probes to detect CAT expression by northern blot. Murine full-length cDNA for glyceraldehyde-3 phosphate dehydrogenase (GAPDH) (1.6 Kb) (Clontech, Palo Alto, Calif.) was used as housekeeping control.
Two million PM stimulated with IL-4+IL-13 or IFN-γ were used for RNA extraction using lysis with TRIzol (Invitrogen-Gibco) following the manufacturer's specifications. Four micrograms of total RNA from each sample were electrophoresed under denaturing conditions, blotted onto nytran membranes (Schleicher & Schuell Inc, Keene, N.H.) and cross-linked by UV irradiation. Membranes were pre-hybridized at 42° C. in ULTRAhyb buffer (Ambion, Austin, Tex.) and hybridized overnight with 1×10^6 cpm/mL of ^32P-labeled probe. […]

| Molecule | tumor growth (tumor volume) ([1]; 20 or 40 mgs/kg subcutaneously, contralateral flank) | tumor growth, comparison of doses ([1]; 40 mgs/kg, the highest dose tested) | extra-cellular L-Arg levels (mean of three experiments) ([2]; Non-stimulated PM) [µM] | extra-cellular L-Arg levels (mean of three experiments) ([2]; PM stimulated with IL-4 + IL-13) [µM] | rapid decrease in the extra-cellular levels of L-Arg ([2]; PM stimulated with IL-4+IL-13) | ASE I up regulation after IL-4+IL-13 stimulation ([3]; NOHA 100 μM, Nor-NOHA 50 μM) | CD3ζ in normal stimulated T lymphocytes co-cultured with IL-4+IL-13 activated PM [4] | intracellular ASE activity [5] | CD3ζ in Jurkat cells co-cultured with PM stimulated with IL-4+IL-13 ([6]; NOHA 100 μM, Nor-NOHA 50 μM, L-Arg 2 mM, L-NIL 5 μg/ml, catalase 200 U/ml, L-NMMA, L-NNA, L-NAME 1 mM) | CAT-2B mRNA expression in stimulated PM [7] | change of extra-cellular L-Arg by stimulated PM ([2]; similar to unstimulated PM) | ASE I expression in PM stimulated with cytokines ([3]; 24 hours) | CD3ζ in stimulated T-cells co-cultured with cytokine-stimulated PM ([4]; transwells) | expression of CD3ζ and CD3ε in Jurkat cells co-cultured with cytokine-stimulated PM ([6]; rIL-4 50 U/ml, rIL-13 50 ng/ml, rIFN-γ 100 U/ml) |
| --- | --- | --- | --- | --- | --- | --- | --- | --- | --- | --- | --- | --- | --- | --- |
| N=C(NO)NCC[C@H](N)C(=O)O [Nor-NOHA, N(omega)-hydroxy-nor-l-arginine] | significant arrest of tumor growth | most effective | 109.8 | 73.8 | partially blocked the rapid decrease | did not prevent ASE I up regulation | prevented the loss of CD3ζ | blocked intracellular ASE activity | prevented the decrease of CD3ζ | – | – | – | – | – |
| B1 | – | – | – | – | – | – | – | – | – | no increase in CAT-2B mRNA | moderate decrease in L-Arg | decrease ASE I expression | normal cycle of internalization and re-expression of CD3ζ within 48 hours | did not alter CD3ζ or CD3ε expression |
